The test system of series [1] is HBV. As to the kind of experiment: Inhibition of HBV-replication in HepG2 2.2.15 cells (extracellular HBV DNA, PCR). In kind it is cell-based, hepatitis B virus. Conditions: read-out: EC50, concentration required for 50% reduction of HBV DNA in the medium of the cells. How it is done: The antiviral efficacy of the compounds of the invention was investigated on HepG2 2.2.15 cells, a human hepatoblastoma cell line which has the replication-competent HBV genome stably integrated therein and produces infectious progeny viruses in a productive manner (Sells et al., Proc Natl Acad Sci USA 1987, 84: 1005-1009).
The above cells were cultured under standardized conditions as specified by Korba and Gerin, and the amount of extracellular viral DNA was determined (Korba et al., Antiviral Res 1992, 19: 55-70).
Following passaging, the HepG2 2.2.15 cells were seeded at a density of about 60% in 12-well plates and cultured to confluence in 10% FBS Dulbecco MEM. Thereafter, the medium was changed to 2% FBS, and the cells were cultured for another 24 hours.
After another change of medium, the cells were treated with varying concentrations of compounds according to the invention. Every 24 hours the compounds were re-added together with the medium. On the 6th day of treatment, the cell supernatants were centrifuged off and stored at −20° C. until analysis of the HBV DNA was effected.
Following treatment of the culture supernatants with proteinase K, the extracellular viral DNA was amplified by means of PCR using the following primers (forward: 5′-CTCCAGTTCAGGAACAGTAAACCC-3′(SEQ ID NO. 1); reverse: 5′-TTGTGAGCTCAGAAAGGCCTTGTAAGTTGGCG-3′(SEQ ID NO. 2). The PCR products were separated on 1% agarose, stained with ethidium bromide and quantified using a Fluor-S™ Multimager (Biorad).
For calibration of the PCR reaction, serial dilutions of the pUC19 HBV and pTHBV plasmids with known genome equivalents (GE) were used, resulting in a lower detection limit of about 10^3 GE and a linearity between 10^3 and 10^5 GE.

The subject of a further series is HL-60 cells. As to the kind of experiment: Cytotoxicity, inhibition of proliferation of HL-60 cells. In kind it is cell-based, human. Conditions: for CD50, concentration producing 50% inhibition of cell proliferation: two days incubation; for antiproliferative activity: in words. How it is done: (§1) To this end, established cells of a human myeloid leukemia (HL-60) in RPMI medium, and the above-mentioned HepG2 cells in Dulbecco MEM, respectively, were incubated for two days using varying concentrations of compounds, and the proliferation rate of the cells was subsequently determined. The data were used to determine the concentration of compounds resulting in 50% inhibition of proliferation (CD50).

Another series has as its system HepG2-cells. As to the kind of experiment: Cytotoxicity, inhibition of proliferation of HepG2 cells. It counts as cell-based, human. Conditions: for CD50, concentration producing 50% inhibition of cell proliferation: two days incubation; for antiproliferative activity: in words. How it is done:
as §1

For a further series, the target named is T1, HBV DNA polymerase (Hepatitis B virus genotype D subtype ayw, UniProt P03156).
T1 construct: the endogenous HBV DNA polymerase activity; from tissue; host or cells: serum of patients with untreated hepatitis B virus infection; virus particles purified by ultracentrifugation and lysed
In words: Inhibition of endogenous HBV DNA polymerase by nucleoside triphosphates. Conditions: virus particles from patient serum, 3H-dCTP, 1 h 37° C., read-out: IC50, 50% inhibition of the HBV DNA polymerase activity. It counts as biochemical. How it is done: To determine the endogenous HBV DNA polymerase activity, about 100 ml of serum from patients with untreated hepatitis B virus infections from Charité, Berlin, (>10^7 HBV particles/ml), was centrifuged at 3000 rpm. Virus particles of the cleared serum were sedimented in a Beckman SW28 rotor at 25,000 rpm, 60 min. The virus pellet was suspended in 7 ml of TKM buffer (50 mM Tris-HCl, pH 7.5, 50 mM KCl, 5 mM MgCl2), layered over a step gradient of 10 ml each of 0.3 M, 0.6 M, 0.9 M saccharose in TKM buffer and centrifuged at 25,000 rpm for 20 hours.
The purified virus pellet was suspended in 250 μl TKM buffer, lysed by ultrasound, divided in aliquots and frozen at −80° C. (Davies et al., Antiviral Res 1996, 30: 133-145).
The HBV DNA polymerase assay contained in 30 μl about 2-4×10^8 purified virus particles (lysed beforehand additionally in 6% β-mercaptoethanol, 10% Igepal for 15 min at room temperature), 42 mM Tris-HCl, (pH 7.5), 34 mM MgCl2, 340 mM KCl, 22 mM β-mer-captoethanol, 0.4% Igepal, 70 μM TTP, dATP, dGTP and 1 μCi ^3HdCTP (=0.7 μM dCTP) (Matthes et al., Antimicrob Agents & Chemother 1991, 35: 1254-1257) and varying concentrations of β-L-N4-hydroxycytosine nucleoside triphosphates as inhibitors.
Following a one-hour incubation at 37° C., 20 μl of the assay volume was placed on paper filter, washed 5 times with 5% trichloroacetic acid and 0.1% Na pyrophosphate, and the ^3H-dCMP incorporated in the HBV DNA was subsequently measured in a Liquid Scintillation Counter.
Using the concentration-dependent inhibition curves of HBV DNA synthesis, the concentration of β-L-N4-hydroxycytosine nucleoside triphosphates resulting in 50% inhibition of the HBV DNA polymerase activity was determined.

A further series concerns HIV. In words: Inhibition of HIV replication. In kind it is cell-based. The note with it: read-out: EC50 against HIV replication.
The test system of series [2] is HBV. The note with it: treatment of HBV infections; cited from earlier work.
Where [3] appears, read: HepG2 2.2.15 cells, 6 days incubation, extracellular HBV DNA.

“And” between values parts separate entries of the source, which are not always exact repeats. Equal values may be shown once. Read-outs that look alike come from different tables or passages of the source. A value given as a limit tells only on which side of the number the result lay.

T1 sequence (P03156 whole entry): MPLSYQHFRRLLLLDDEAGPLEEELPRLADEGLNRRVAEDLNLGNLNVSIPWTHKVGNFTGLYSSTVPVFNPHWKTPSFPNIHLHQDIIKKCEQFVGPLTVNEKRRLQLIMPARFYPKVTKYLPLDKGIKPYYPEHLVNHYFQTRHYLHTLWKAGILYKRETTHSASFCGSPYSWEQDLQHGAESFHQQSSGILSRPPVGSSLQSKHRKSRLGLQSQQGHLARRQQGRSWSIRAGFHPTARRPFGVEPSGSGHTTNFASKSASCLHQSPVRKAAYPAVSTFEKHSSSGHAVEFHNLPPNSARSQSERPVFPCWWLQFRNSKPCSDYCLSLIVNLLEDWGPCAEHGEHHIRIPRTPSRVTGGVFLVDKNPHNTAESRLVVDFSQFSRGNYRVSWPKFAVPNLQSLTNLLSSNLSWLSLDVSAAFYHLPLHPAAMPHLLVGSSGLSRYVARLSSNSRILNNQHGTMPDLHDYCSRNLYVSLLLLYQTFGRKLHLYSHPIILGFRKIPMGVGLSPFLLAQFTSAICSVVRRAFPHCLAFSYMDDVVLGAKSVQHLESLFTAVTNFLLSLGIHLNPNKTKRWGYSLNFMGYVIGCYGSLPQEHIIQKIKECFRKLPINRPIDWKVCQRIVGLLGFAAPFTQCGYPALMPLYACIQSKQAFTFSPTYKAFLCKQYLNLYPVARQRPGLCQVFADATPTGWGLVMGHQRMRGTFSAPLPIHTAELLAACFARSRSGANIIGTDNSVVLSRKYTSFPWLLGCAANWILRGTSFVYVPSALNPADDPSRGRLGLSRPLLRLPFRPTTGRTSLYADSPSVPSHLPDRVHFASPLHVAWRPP

Regarding `O=c1nc(NO)c(F)cn1[C@H]1CS[C@@H](CO)O1` [HyFTC, β-L-2′,3′-dideoxy-3′-thia-5-fluoro-N4-hydroxycytidine], the EC50 in the series on HBV [1] (setting [3]) amounted to 300 nM. Besides, the “CD50, concentration producing 50% inhibition of cell proliferation” value worked out at 1100 µM in the series on HL-60 cells and 975 µM with HepG2-cells.

For `Cc1cn([C@@H]2C[C@@H](O)[C@H](CO)O2)c(=O)nc1NO` [L-HyMetCdR, β-L-5-methyl-N4-hydroxydeoxycytidine], the “CD50, concentration producing 50% inhibition of cell proliferation” value in the series with HL-60 cells worked out at 600 µM; in the series with HepG2-cells it was 490 µM.

Turning to `O=c1nc(NO)ccn1[C@@H]1C=C[C@H](CO)O1` [L-HyddeC, β-L-2′,3′-didehydro-2′,3′-dideoxy-N4-hydroxycytidine], in the series with HBV [1] (setting [3]), the EC50 is 50 nM. In addition, the “CD50, concentration producing 50% inhibition of cell proliferation” value in the series on HL-60 cells was above 3500 µM; in the series on HepG2-cells, above 5000 µM.

For `O=c1nc(NO)ccn1[C@@H]1C=C[C@H](COP(=O)(O)OP(=O)(O)OP(=O)(O)O)O1` [Triphosphate of L-HyddeC], the IC50 (commonly the concentration that inhibits the measured activity by half) at HBV DNA polymerase is 150 to 650 nM and 280 nM.

With `Cc1cn([C@@H]2C[C@@H](O)[C@H](COP(=O)(O)OP(=O)(O)OP(=O)(O)O)O2)c(=O)nc1NO` [Triphosphate of L-HyMetCdR], on HBV DNA polymerase, the IC50 stood at 4000 nM.

On to `O=c1nc(NO)c(F)cn1[C@@H]1C=C[C@H](CO)O1` [L-HyddeFC, β-L-2′,3′-didehydro-2′,3′-dideoxy-5-fluoro-N4-hydroxycytidine], for which the EC50 in the series on HBV [1] (setting [3]) is below 100 nM. The antiproliferative activity entry in the series on HL-60 cells and in the series with HepG2-cells was “lost the antiproliferative activity” throughout.

As for `O=c1nc(NO)ccn1[C@@H]1CC[C@H](COP(=O)(O)OP(=O)(O)OP(=O)(O)O)O1` [Triphosphate of L-HyddC], the half-inhibitory concentration (IC50) on HBV DNA polymerase is 150 to 650 nM and 550 nM.

In the case of `Nc1ccn([C@@H]2CS[C@H](CO)O2)c(=O)n1` [3TC (lamivudine), β-L-2′,3′-dideoxy-3′-thiacytidine, reference compound], the EC50 in the series with HBV [1] (Hepatitis B virus, HepG2 2.2.15, 144 h) worked out at 100 nM. For the same compound, the “CD50, concentration producing 50% inhibition of cell proliferation” value turned out to be 2000 µM with HL-60 cells and 1900 µM in the series on HepG2-cells.

For `Cc1cn([C@@H]2C[C@@H](O)[C@H](CO)O2)c(=O)[nH]c1=O` [L-TdR, β-L-thymidine, reference compound], in the series with HBV [1] (Hepatitis B virus, 144 h, HepG2 2.2.15 cells, 6 days incubation, extracellular HBV DNA), the EC50 is 300 nM.

On to `Nc1nc(=O)n([C@@H]2C[C@@H](O)[C@H](CO)O2)cc1F` [L-FCdR, β-L-5-fluorodeoxycytidine, reference compound], for which, in the series on HBV [1] (setting [3]), the EC50 was determined as 1200 nM.

Regarding `O=c1nc(NO)ccn1[C@H]1CS[C@@H](CO)O1` [Hy3TC, β-L-2′,3′-dideoxy-3′-thia-N4-hydroxycytidine], the EC50 is 500 nM in the series with HBV [1] (setting [3]) and above 25000 nM with HIV. In addition, the “CD50, concentration producing 50% inhibition of cell proliferation” value stood at 1450 µM with HL-60 cells and 1230 µM in the series on HepG2-cells.

For the compound `O=c1nc(NO)c(F)cn1[C@@H]1CC[C@H](CO)O1` [L-HyddFC, β-L-2′,3′-dideoxy-5-fluoro-N4-hydroxycytidine], the EC50 in the series on HBV [1] (setting [3]) was found to be 350 nM. In addition, the “CD50, concentration producing 50% inhibition of cell proliferation” value in the series with HL-60 cells amounted to 1860 µM; in the series with HepG2-cells it was 1580 µM.

Take `O=c1nc(NO)c(F)cn1[C@@H]1C[C@@H](O)[C@H](CO)O1` [L-HyFCdR, β-L-5-fluoro-N4-hydroxydeoxycytidine]: the EC50 in the series on HBV [1] (setting [3]) amounted to 4500 nM. Besides, the “CD50, concentration producing 50% inhibition of cell proliferation” value in the series on HL-60 cells is 1370 µM; with HepG2-cells, 920 µM.

α-interferon: in the series on HBV [2], the “share of the patients in whom it is effective” value was “about 33%”.

Take `[N-]=[N+]=N[C@@H]1C[C@@H](n2ccc(NO)nc2=O)O[C@H]1CO` [L-N3HyCdR, β-L-3′-azido-2′,3′-dideoxy-N4-hydroxycytidine]: the “CD50, concentration producing 50% inhibition of cell proliferation” value was found to be 2000 µM in the series on HL-60 cells and 1160 µM with HepG2-cells.

Consider `O=c1nc(NO)ccn1[C@@H]1C[C@@H](O)[C@H](CO)O1` [L-HyCdR, β-L-N4-hydroxydeoxycytidine], for which the EC50 in the series with HBV [1] (setting [3]) was found to be 3000 nM. Moreover, the “CD50, concentration producing 50% inhibition of cell proliferation” value in the series on HL-60 cells came out at 460 µM; in the series on HepG2-cells it was 545 µM.

Consider `O=c1nc(NO)ccn1[C@@H]1CS[C@H](COP(=O)(O)OP(=O)(O)OP(=O)(O)O)O1` [Triphosphate of L-Hy3TC], for which the concentration for half-maximal inhibition (IC50) at HBV DNA polymerase is 150 to 650 nM and 650 nM.

With `O=c1nc(NO)ccn1[C@@H]1C[C@@H](F)[C@H](CO)O1` [L-FHyCdR, β-L-3′-fluoro-2′,3′-dideoxy-N4-hydroxycytidine], the results for the “CD50, concentration producing 50% inhibition of cell proliferation” value with HL-60 cells and with HepG2-cells were 4400 µM and 820 µM, respectively.

With `O=c1nc(NO)ccn1[C@@H]1C[C@@H](O)[C@H](COP(=O)(O)OP(=O)(O)OP(=O)(O)O)O1` [Triphosphate of L-HyCdR], at HBV DNA polymerase, the IC50 stood at 6000 nM.

For the compound `O=c1nc(NO)ccn1[C@@H]1CC[C@H](CO)O1` [L-HyddC, β-L-2′,3′-dideoxy-N4-hydroxycytidine], the antiproliferative activity result in the series on HL-60 cells and with HepG2-cells was “lost the antiproliferative activity” throughout. Moreover, the “CD50, concentration producing 50% inhibition of cell proliferation” value in the series with HL-60 cells is 1600 µM; in the series on HepG2-cells, 2250 µM.

With `O=c1nc(NO)ccn1[C@H]1O[C@@H](CO)C=C1F` [L-HyFddeC, β-L-2′,3′-didehydro-2′,3′-dideoxy-2′-fluoro-N4-hydroxycytidine], in the series with HBV [1] (setting [3]), the EC50 is below 100 nM. Besides, in the series with HL-60 cells, the antiproliferative activity entry was “lost the antiproliferative activity” and the “CD50, concentration producing 50% inhibition of cell proliferation” value amounted to 1130 µM. Further, in the series with HepG2-cells, the antiproliferative activity result is recorded as “lost the antiproliferative activity” and the “CD50, concentration producing 50% inhibition of cell proliferation” value came out at 1370 µM.

Consider `Nc1ccn([C@@H]2CC[C@H](CO)O2)c(=O)n1` [L-ddC, β-L-2′,3′-dideoxycytidine, reference compound], for which the EC50 in the series on HBV [1] (setting [3]) was 250 nM.
